From patent US20230124720A1, “APPLICATION OF ACRIDINEDIONE COMPOUND IN PREPARATION OF ANTI-DIABETIC DRUGS” (THE FOURTH MILITARY MEDICAL UNIVERSITY, priority 2020, published 2023)

Key:
STZ-induced T2DM rats = experiment: Serum insulin and HOMA-IR in T2DM rats; format: in vivo, rat
Procedure: 150 male SD rats, housed in cages in a clean constant temperature (23±2° C.) and humidity (55±10%) animal house, were manually adjusted on a daily 12 h/12 h diurnal light cycle with free access to water. After 3 days of adaptive feeding, 150 rats were randomly divided into normal and model groups. The normal (Con, n=15) group of rats remained on raw chow and the model group (n=135) of rats were given high fat high sugar chow. All rats were fed twice daily and the amount of feed was adjusted as needed to ensure adequate feed. After 8 weeks of group feeding, the model group rats were given an intraperitoneal injection of 25 mg/kg STZ solution with a 12 h fast prior to injection. […] At the same time, the Con group was daily administrated with a 0.5% CMC-Na solution by gavage, the body weight and postprandial blood sugar (PBG) of each group of rats were monitored weekly. Relevant indicators of lipid metabolism were measured after the end of the study.
In T2DM rat serum insulin assay, fasting serum insulin levels in rats were measured by a commercial insulin ELISA kit. The extent of body insulin resistance was assessed using the Insulin Resistance Index, which was calculated using the Homeostasis model assessment (HOMA-IR) according to literature reports, i.e., HOMA-IR=(fasting glucose×fasting insulin)/22.5.

[1] = n = 6
MIN6 cells = experiment: Insulin secretion in PA-induced insulin-resistant MIN6 cells; format: cell-based, mouse
Procedure: MIN6 cells were seeded in 24-well plates and cultured as described in step 2.1 to a cell confluency of more than 80% and administrated in the following groups, with 12 replicates per group: (1) normal control group (Con): cultured with blank 1640 medium; (2) insulin resistance model panel (IR): treated with 0.125 mmol/L PA for 24 h to induce establishment of an insulin resistance model; (3) ADD-16 administration group (ADD): 10 μmol/L ADD-16 intervention was administered for 24 h after successful establishment of the insulin resistance model; (4) TAK875 control group (TAK875): 10 μmol/L TAK875 was administered as a positive control drug intervention for 24 h after successful establishment of the insulin resistance model; (5) metformin control group (MT): 10 mmol/L metformin was administered as a positive control drug intervention for 24 h after successful establishment of the insulin resistance model; (6) sitagliptin control group (ST): 10 μmol/L sitagliptin was administered as a positive control drug intervention for 24 h after successful establishment of the insulin resistance model. After the group administration, the medium was aspirated and washed 2 times with a KRB buffer without sugar, followed by the addition of the KRB buffer without sugar. […] After incubation at 37° C. for 1 h, all the medium in the wells was aspirated and centrifuged at 2000 rmp/min for 20 min, and the supernatant was collected and stored at −20° C. The insulin content was measured for each group.

[2] = Tissue distribution kinetics in SD rats (LC-MS/MS); format: in vivo, rat; settings: gavage 10 mg/kg
Procedure: 40 healthy male SD rats, weighing 200-220 g, were housed adaptively for three days and fasted for 12 h prior to the experiment. All rats were randomly divided into 5 groups, 8 for each group. Each group of rats was gavaged with the ADD-16 solution (10 mg/kg), anesthetized at 10, 30, 60, 240, 480 min after administration, and sacrificed by exsanguination of the abdominal aorta, respectively. Each group of rats was sacrificed by dissection to collect tissues such as heart, liver, spleen, lung, kidney, brain, and islets. After washing the tissue samples with physiological saline to clean surface blood, the tissue samples were blotted with filter paper to dry surface moisture, weighed, and stored at −80° C. The assay was performed by natural thawing at room temperature and the concentration of ADD-16 in each tissue was determined using the LC-MS/MS method.

[3] = Plasma kinetics after single oral administration in SD rats (LC-MS/MS); format: in vivo, rat; settings: single oral 10 mg/kg
Procedure: Eight healthy male SD rats, weighing 200-220 g, were housed in a clean animal room maintained at constant temperature (23±2° C.) and humidity (55±10%) with a 12 h/12 h artificial light cycle with free access to food and water and conditioned for 3 days prior to the experiment. All rats were fasted from water for 12 h prior to the experiment, and after oral administration of an ADD-16 solution (10 mg/kg) to each rat, and blood was taken at the orbital site at 5, 10, 15, 30, 45, 60, 120, 240, 360, 720, 1440 min. The blood was immediately fed into heparinized centrifuge tubes at 4° C., 3000 rpm/min, centrifuged for 10 min, and the supernatant plasma was carefully aspirated and stored at −80° C. Assays were performed by natural thawing at room temperature and plasma sample pre-treatment procedures were followed to determine plasma concentrations in rats following a single dose using the established LC-MS/MS method.

CC1(C)CC(=O)C2=C(C1)NC1=C(C(=O)CC(C)(C)C1)C2c1ccc(OCc2ccc(C(=O)O)cc2)c(Br)c1 [ADD-16]
HOMA-IR (in words) (STZ-induced T2DM rats): significantly reduced HOMA-IR values
serum insulin level (in words) (STZ-induced T2DM rats; fasting serum): reduce compensatorily elevated insulin levels
LD50 [1]: 123.2 µmol/L
insulin secretion level in insulin-resistant MIN6 cells (in words) (MIN6 cells; PA-induced IR model, 10 μmol/L, 24 h, 2.8 and 16.7 mmol/L glucose, P<0.001): even higher than in Con group
insulinotropic effect compared with TAK875 in insulin-resistant MIN6 cells (in words) (MIN6 cells; same administration concentrations (10 μmol/L)): slightly better than TAK875
islet targeting (in words) [2]: well-defined islet targeting
tissue Cmax order ([2]; AUC 0-8 order the same): liver>islets>lung>kidney>heart>spleen>brain
blood-brain barrier penetration (in words) ([2]; lowest concentration in brain tissue): does not readily penetrate the blood-brain barrier
CL/F ([3]; male, SD, rat, plasma, po, 10 mg/kg, plasma, n = 8, read-out: CLz/F (clearance) (converted)): ~0.15 mL/min/kg
Cmax ([3]; male, SD, rat, plasma, po, 10 mg/kg, plasma, n = 8, read-out: Cmax (plasma concentration maximum)): ~395 ng/mL
Vd/F ([3]; male, SD, rat, plasma, po, 10 mg/kg, plasma, n = 8, read-out: Vz/F (apparent volume of distribution)): ~0.36 L/kg
half-life ([3]; male, SD, rat, plasma, po, 10 mg/kg, plasma, n = 8, read-out: t1/2z (half-life) (converted)): ~1810 min
AUC(0-inf) ([3]; male, SD, rat, plasma, n = 8): 2420 ± 527 ng·h/mL
AUC(0-t) ([3]; male, SD, rat, plasma, n = 8): 1130 ± 35.7 ng·h/mL
Tmax ([3]; male, SD, rat, plasma, n = 8): 30 min
MRT last ([3]; male, SD, rat, plasma, n = 8, read-out: MRT(0-t)): 8.8 ± 0.4 h
MRT inf ([3]; male, SD, rat, plasma, n = 8, read-out: MRT(0-∞)): 37.5 ± 9.2 h
time of maximum blood concentration [3]: 30 min
Cz ([3]; plasma, n = 8): 29.8 ± 10.3 ng/mL
VRT(0-t) ([3]; plasma, n = 8): 55.2 ± 3.0 h^2
VRT(0-∞) ([3]; plasma, n = 8): 1908.2 ± 835.5 h^2
